The target in one test is T1, hCGRP (human calcitonin gene-related peptide) receptor (Homo sapiens, UniProt O60894+Q16602).
T1 construct: SK-N-MC neuroblastoma cells (ATCC® HTB-10™) that endogenously express the hCGRP receptor; host or cells: SK-N-MC neuroblastoma cells
T1 sequence (Q16602 23-461): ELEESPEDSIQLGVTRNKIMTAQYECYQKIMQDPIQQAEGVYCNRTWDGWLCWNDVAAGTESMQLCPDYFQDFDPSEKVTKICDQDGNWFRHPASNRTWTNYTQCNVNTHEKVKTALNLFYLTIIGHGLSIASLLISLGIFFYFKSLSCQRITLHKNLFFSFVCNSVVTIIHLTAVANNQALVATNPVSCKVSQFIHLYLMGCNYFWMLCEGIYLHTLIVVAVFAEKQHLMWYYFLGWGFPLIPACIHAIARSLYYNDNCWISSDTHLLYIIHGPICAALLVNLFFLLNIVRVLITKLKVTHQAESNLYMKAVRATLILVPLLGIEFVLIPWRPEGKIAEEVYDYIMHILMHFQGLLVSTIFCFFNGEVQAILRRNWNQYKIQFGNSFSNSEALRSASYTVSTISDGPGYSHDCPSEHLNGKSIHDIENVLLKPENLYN
T1 sequence (O60894 27-148): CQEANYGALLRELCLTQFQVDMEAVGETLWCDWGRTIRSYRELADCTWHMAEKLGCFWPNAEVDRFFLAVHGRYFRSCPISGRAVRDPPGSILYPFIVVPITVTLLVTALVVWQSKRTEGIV
The test can be described thus: Inhibition of cAMP production by CGRP receptor antagonists (HTRF) in SK-N-MC cells. Type of test: cell-based. Conditions: SK-N-MC cells endogenously expressing hCGRP receptor; human CGRP 0.8 nM as agonist; Kb=IC50/[1+([Agonist]/EC50)]; mean ± SEM. The procedure:
The hCGRP (human calcitonin gene-related peptide) receptor is functionally coupled to the Gas proteins. Stimulation of hCGRP results in an increased synthesis of intracellular cAMP and can be blocked by the addition of receptor antagonists. Receptor activity is thus a reflection of the amount of cAMP present within cells which can be detected using standard in vitro technology.
Cultured SK-N-MC neuroblastoma cells (ATCC® HTB-10™) that endogenously express the hCGRP receptor are grown in Eagle's Minimum essential medium (HYCLONE™) supplemented with 10% heat-inactivated Fetal bovine serum (FBS; GIBCO®), Non-Essential Amino Acids (GIBCO®), 1 mM sodium pyruvate, 2 mM L-glutamine, 100 U/mL of penicillin, and 10 μg/mL of streptomycin to about 70% confluency. After providing fresh medium, the cells are incubated at 37° C. overnight. On the day of the assay, cells are detached using ACCUTASE® (MP Biomedicals), resuspended in assay buffer [Hank's Balanced Salt Solution/Dulbecco's phosphate-buffered saline with […] each of CaCl2 and MgCl2 mixed 1:2, 3.3 mM 4-(2-hydroxyethyl)-1-piperazineethanesulfonic acid, 0.03% bovine serum albumin, and 0.5 mM 1-methyl-3-isobutylxanthine (as inhibitor of […])], and seeded 3-5K/well into 384-well, poly-D-lysine coated white plates (BD Biosciences).
For dose-response studies, compounds are serially diluted 1:3 in dimethyl sulfoxide and then 1:10 into assay buffer. Human CGRP (0.8 nM; Bachem) as a receptor-specific agonist for the hCGRP receptor is mixed with diluted compound and added to the cells as the challenge stimulant at their EC80 concentrations.
The amount of intracellular cAMP is quantitated using HTRF technology (Cisbio) as per vendor instructions. Briefly, cAMP-d2 conjugate and anti-cAMP-cryptate conjugate in lysis buffer are incubated with the treated cells at RT for 90 min. The HTRF signal is immediately detected using an ENVISION® plate reader (Perkin-Elmer) to calculate the ratio of fluorescence at […]. The raw data are converted to cAMP amount (pmole/well) using a cAMP standard curve generated for each experiment. Relative EC50 values are calculated from the top-bottom range of the concentration response curve using a four-parameter logistic curve fitting program (ACTIVITYBASE® v5.3.1.22 or GENEDATA SCREENER® v12.0.4), and Kb values are estimated as agonist-corrected IC50 values using the equation: Kb=(IC50)/[1+([Agonist]/EC50)]. Estimated Kb values are reported as mean values±SEM, averaged from the number of runs (n).
Following the procedure essentially as described above, the compounds of Examples 1-12 have a Kb measured at human CGRP as shown in Table 3.
The term Kb denotes the equilibrium dissociation constant of an antagonist, usually derived from a functional assay. On to `Cc1cc(CNC(=O)c2ccc([C@@H](C)[C@]3(C)CC(=O)NC3=O)cc2)cc(C)n1` [Example 1, N-[(2,6-dimethylpyridin-4-yl)methyl]-4-{(1R)-1-[(3S)-3-methyl-2,5-dioxopyrrolidin-3-yl]ethyl}benzamide], for which the Kb was found to be 546 ± 226 pM.
The same measure, in the same setting: the result for `Cc1cc(C)nc(CNC(=O)c2ccc([C@@H](C)[C@]3(C)CC(=O)NC3=O)cc2)c1` [Example 2, N-[(4,6-dimethyl-2-pyridyl)methyl]-4-[(l R)-1-[(3S)-3-methyl-2,5-dioxo-pyrrolidin-3-yl]ethyl]benzamide] reads 2220 ± 1470 pM; that for `Cc1cc(C#N)nc(CNC(=O)c2ccc([C@@H](C)[C@]3(C)CC(=O)NC3=O)cc2)c1` [Example 3, N-[(6-cyano-4-methyl-2-pyridyl)methyl]-4-[(1R)-1-[(3S)-3-methyl-2,5-dioxo-pyrrolidin-3-yl]ethyl]benzamide], 1510 ± 140 pM; that for `Cc1cc(CNC(=O)c2ccc([C@@H](C)[C@]3(C)CC(=O)NC3=O)cc2)cc(C#N)n1` [Example 4, N-[(2-cyano-6-methyl-4-pyridyl)methyl]-4-[(1R)-1-[(3S)-3-methyl-2,5-dioxo-pyrrolidin-3-yl]ethyl]benzamide], 23500 ± 925 pM.
In the case of `Cc1cc(CNC(=O)c2ccc([C@@H](C)[C@]3(C)CC(=O)NC3=O)cc2)cc(C(C)C)n1` [Example 5, N-[(2-isopropyl-6-methyl-4-pyridyl)methyl]-4-[(R)-1-[(3S)-3-methyl-2,5-dioxo-pyrrolidin-3-yl]ethyl]benzamide], the Kb is 718 ± 4.5 pM.
The same measure, in the same setting: the result for `Cc1cc(CNC(=O)c2ccc([C@@H](C)[C@]3(C)CC(=O)NC3=O)cc2)cc(C2CC2)n1` [Example 6, N-[(2-cyclopropyl-6-methyl-4-pyridyl)methyl]-4-[(1R)-1-[(3S)-3-methyl-2,5-dioxo-pyrrolidin-3-yl]ethyl]benzamide] reads 375 ± 172 pM.
The same measure, in the same setting: the result for `Cc1cc(CNC(=O)c2ccc([C@@H](C)[C@]3(C)CC(=O)NC3=O)cc2)nc(C2CC2)c1` [Example 7, N-[(6-cyclopropyl-4-methyl-2-pyridyl)methyl]-4-[(1R)-1-[(3S)-3-methyl-2,5-dioxo-pyrrolidin-3-yl]ethyl]benzamide] reads 582 ± 228 pM; that for `Cc1cc(CNC(=O)c2ccc([C@@H](C)[C@]3(C)CC(=O)NC3=O)cn2)cc(C)n1` [Example 8, N-[(2,6-dimethyl-4-pyridyl)methyl]-5-[(1R)-1-[(3S)-3-methyl-2,5-dioxo-pyrrolidin-3-yl]ethyl]pyridine-2-carboxamide], 1250 ± 4.5 pM.
On the same count and under the same terms, the result for `Cc1cc(CNC(=O)c2ccc([C@@H](C)[C@]3(C)CC(=O)NC3=O)cn2)cc(C2CC2)n1` [Example 9, N-[(2-cyclopropyl-6-methyl-4-pyridyl)methyl]-5-[(1R)-1-[(3S)-3-methyl-2,5-dioxo-pyrrolidin-3-yl]ethyl]pyridine-2-carboxamide] reads 1150 ± 181 pM; that for `CCc1cc(CNC(=O)c2ccc([C@@H](C)[C@]3(C)CC(=O)NC3=O)cc2)cc(C)n1` [Example 10, N-[(2-ethyl-6-methylpyridin-4-yl)methyl]-4-{(1R)-1-[(3S)-3-methyl-2,5-dioxopyrrolidin-3-yl]ethyl}benzamide], 600 ± 43.1 pM.
In the case of `Cc1cc(CNC(=O)c2ccc([C@@H](C)[C@]3(C)CC(=O)NC3=O)cc2)cc(C2CCC2)n1` [Example 11, N-[(2-cyclobutyl-6-methylpyridin-4-yl)methyl]-4-{(1R)-1-[(3S)-3-methyl-2,5-dioxopyrrolidin-3-yl]ethyl}benzamide], the Kb was found to be 110 ± 11 pM.
Same read-out and setting: in the case of `Cc1cc(CNC(=O)c2ccc([C@@H](C)[C@]3(C)CC(=O)NC3=O)cc2)cc(C2CCCC2)n1` [Example 12, N-[(2-cyclopentyl-6-methylpyridin-4-yl)methyl]-4-{(1R)-1-[(3S)-3-methyl-2,5-dioxopyrrolidin-3-yl]ethyl}benzamide] it was 295 ± 56 pM.

The next test relates to CGRP receptor. Kind of test: Capsaicin-induced dermal blood flow (DBF), laser Doppler imaging, in nonhuman primates. Type of test: in vivo. Conditions: 3 mg/kg orally, 90 min prior to capsaicin; cynomolgus NHP; compared to vehicle; p<0.003. The text has this: Capsaicin-induced dermal blood flow (DBF) may be used as a target engagement biomarker to assess CGRP receptor activity in nonhuman primates (NHPs). Methods are adapted from earlier published procedures [Hershey et al., Regulatory Peptides, Volume 127, Issue 1-3, pp. 71-77, 2005].
Animal studies may be performed under protocols approved by the Covance Institutional Animal Care and Use Committee. Cynomolgus NHPs may be used given the close homology between NHP and human CGRP receptor. The study population may include healthy, CGRP antagonist naive cynomolgus NHP males weighing ˜3-4 kg.
Cynomolgus NHPs are enrolled in the study based on prescreening for capsaicin responsiveness. […] NHPs are used in a cross over design in which all NHPs received all doses after a two week wash-out period. Total n=10 NHPs per group. […]
Analysis and Statistics: LDI repeat scans are analyzed using Moor software v.5.2 (Moor Instruments, Wilmington, Del.) by region of interest signal analysis, and Microsoft Excel worksheets are used for averaging the signal from the regions of interest at a given time point. […] Analyzed data is entered into Graphpad PRISM® 4.0 for graphing and a repeated measurement mixed-effect model in SAS® 9.1 is used for statistical analysis. Data is expressed as mean+/−SD.
For the compound `Cc1cc(CNC(=O)c2ccc([C@@H](C)[C@]3(C)CC(=O)NC3=O)cc2)cc(C)n1` [Example 1, N-[(2,6-dimethylpyridin-4-yl)methyl]-4-{(1R)-1-[(3S)-3-methyl-2,5-dioxopyrrolidin-3-yl]ethyl}benzamide], the “group mean inhibition of capsaicin-induced blood flow increase” value stood at 27.4%.

Staying with this test, now noted: 30 mg/kg orally, 90 min prior to capsaicin; cynomolgus NHP; compared to vehicle; p<0.00001.
In the case of `Cc1cc(CNC(=O)c2ccc([C@@H](C)[C@]3(C)CC(=O)NC3=O)cc2)cc(C)n1` [Example 1, N-[(2,6-dimethylpyridin-4-yl)methyl]-4-{(1R)-1-[(3S)-3-methyl-2,5-dioxopyrrolidin-3-yl]ethyl}benzamide], the “group mean inhibition of capsaicin-induced blood flow increase” value amounted to 40.6%.

These data come from patent US9708297B2, “CGRP receptor antagonists” (Eli Lilly and Company, priority 2015, dated 2017).
